± gives the expanded uncertainty stated by the source.
Details: Liquid

CCCCCCCCCCCCCC[P+](CCCCCC)(CCCCCC)CCCCCC.[Br-] [tetradecyltrihexylphosphonium bromide]
mass density [kg/m3]
Details	283.15 K	293.15 K	303.15 K	313.15 K	323.15 K	333.15 K
100 kPa	962.7 ± 0.6	956.5 ± 0.6	950.3 ± 0.6	944.1 ± 0.6	937.8 ± 0.7	931.7 ± 0.7
1000 kPa	963.2 ± 0.6	957.1 ± 0.6	950.9 ± 0.6	944.6 ± 0.7	938.4 ± 0.7	932.3 ± 0.7
2000 kPa	963.7 ± 0.6	957.6 ± 0.6	951.4 ± 0.6	945.3 ± 0.7	939 ± 0.7	933 ± 0.7
3000 kPa	964.2 ± 0.6	958.1 ± 0.6	952 ± 0.7	945.8 ± 0.7	939.7 ± 0.7	933.6 ± 0.7
4000 kPa	964.8 ± 0.6	958.7 ± 0.7	952.6 ± 0.7	946.4 ± 0.7	940.3 ± 0.7	934.2 ± 0.7
5000 kPa	965.3 ± 0.6	959.2 ± 0.7	953.1 ± 0.7	947 ± 0.7	941 ± 0.7	934.9 ± 0.8
10000 kPa	967.9 ± 0.7	961.9 ± 0.7	955.9 ± 0.7	949.8 ± 0.8	943.9 ± 0.8	938 ± 0.8
15000 kPa	970.3 ± 0.7	964.5 ± 0.7	958.6 ± 0.8	952.7 ± 0.8	946.8 ± 0.9	941 ± 0.9
20000 kPa	972.8 ± 0.7	967 ± 0.8	961.2 ± 0.8	955.4 ± 0.9	949.7 ± 0.9	943.9 ± 1
25000 kPa	975.3 ± 0.7	969.3 ± 0.8	963.8 ± 0.9	958 ± 0.9	952.4 ± 1	946.8 ± 1
30000 kPa	977.6 ± 0.8	971.8 ± 0.8	966.3 ± 0.9	960.6 ± 1	955.1 ± 1	949.6 ± 1.1
35000 kPa	979.8 ± 0.8	974.2 ± 0.8	968.7 ± 0.9	963.2 ± 1	957.7 ± 1	952.3 ± 1.1
40000 kPa	982 ± 0.8	976.5 ± 0.8	971 ± 0.9	965.5 ± 1	960.2 ± 1.1	954.9 ± 1.2
45000 kPa	984.2 ± 0.8	978.8 ± 0.8	973.4 ± 0.9	967.9 ± 1	962.7 ± 1.1	957.3 ± 1.2

From the NIST ThermoML archive (doi:10.1021/je101232g)
